{
  "source": "PubChem BioAssay (NCI)",
  "note": "Where “and” joins values, the source holds several entries; their conditions need not be identical. Identical values can stand only once.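 Step 1: Grow cells in 96-well plates. Step 2: Expose to compound for 48 hours at 5 concentrations. Step 3: Interpolate endpoints linearly; if unreached, use highest concentration. The concentration for 50% growth inhibition is given as GI50. Definition used: TGI = concentration required for complete inhibition of growth.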",
  "data": [
    {"system": "COLO 205 colon", "experiment": "inhibition of tumour cell growth, NCI panel, 48 h", "values": [
      {"smiles": "COc1cccc2c1cc1c3c(cc4c(c32)OCO4)C(=O)N1", "GI50": "2.3 µM", "TGI": "5.39 µM"},
      {"smiles": "Cc1c(Cl)cccc1NC(=O)c1sc2nc3c(cc2c1N)CCCC3", "GI50": "0.719 µM", "TGI": "> 100 µM"},
      {"smiles": "O=C1/C(=C\\c2ccccc2)C2OCC=C3CN4CCC56c7ccccc7N1C5C2C3CC46", "note": "(centres undefined)", "GI50": "17.3 µM", "TGI": "> 100 µM"},
      {"smiles": "COc1ccc2c(c1)/C(=N/OC(C)=O)c1c-2cnc2ccccc12", "GI50": "26.5 µM", "TGI": "94.7 µM"},
      {"smiles": "CCCCCCCCCCSC(=N)N", "GI50": "1.55 µM", "TGI": "2.91 µM"},
      {"smiles": "Cn1cc(-c2nc(N[C@@H]3CCCC[C@@H]3N)c(F)c3c2C(=O)NC3)cn1", "GI50": "1.41 µM and 1.63 µM", "TGI": "3.99 µM and 4.13 µM"},
      {"smiles": "O=C(/C=C/c1ccco1)c1ccc(Nc2nc(Nc3ccc(F)cc3)nc(Nc3ccc(F)cc3)n2)cc1", "GI50": "7.04 µM", "TGI": "26.1 µM"},
      {"smiles": "O=C(NOCCO)c1cc(CN2OCCCC2=O)c(F)c(F)c1Nc1ccc(I)cc1F", "GI50": "< 0.01 µM and 0.00219 µM", "TGI": "14.9 µM and > 10 µM"},
      {"smiles": "CN(C(=O)CNC(=O)/C=C/c1cccc(Cl)c1)C1CCS(=O)(=O)CC1", "GI50": "1.1 µM", "TGI": "> 100 µM"},
      {"smiles": "O=C(/C=C/c1cccc2ccccc12)Nc1ncc(Cc2ccccc2)s1", "GI50": "1.48 µM", "TGI": "> 100 µM"},
      {"smiles": "CCCN1CCC=C(c2ccc(Nc3nc(Nc4ccccc4C(N)=O)c4cc[nH]c4n3)c(C)c2)C1", "GI50": "2.37 µM", "TGI": "8.68 µM"}
    ]},
    {"system": "RXF 393 renal", "experiment": "inhibition of tumour cell growth, NCI panel, 48 h", "values": [
      {"smiles": "COc1cccc2c1cc1c3c(cc4c(c32)OCO4)C(=O)N1", "GI50": "2.04 µM", "TGI": "5.5 µM"},
      {"smiles": "Cc1c(Cl)cccc1NC(=O)c1sc2nc3c(cc2c1N)CCCC3", "GI50": "0.514 µM", "TGI": "> 89.6 µM"},
      {"smiles": "O=C1/C(=C\\c2ccccc2)C2OCC=C3CN4CCC56c7ccccc7N1C5C2C3CC46", "note": "(centres undefined)", "GI50": "35.8 µM", "TGI": "> 100 µM"},
      {"smiles": "COc1ccc2c(c1)/C(=N/OC(C)=O)c1c-2cnc2ccccc12", "GI50": "26.4 µM", "TGI": "68.5 µM"},
      {"smiles": "CCCCCCCCCCSC(=N)N", "GI50": "5.1 µM", "TGI": "17.6 µM"},
      {"smiles": "Cn1cc(-c2nc(N[C@@H]3CCCC[C@@H]3N)c(F)c3c2C(=O)NC3)cn1", "GI50": "1.99 µM and 2.47 µM", "TGI": "10.5 µM and 12.5 µM"},
      {"smiles": "O=C(/C=C/c1ccco1)c1ccc(Nc2nc(Nc3ccc(F)cc3)nc(Nc3ccc(F)cc3)n2)cc1", "GI50": "41.4 µM", "TGI": "> 100 µM"},
      {"smiles": "O=C(NOCCO)c1cc(CN2OCCCC2=O)c(F)c(F)c1Nc1ccc(I)cc1F", "GI50": "0.521 µM and 0.336 µM", "TGI": "25.9 µM and > 10 µM"},
      {"smiles": "CN(C(=O)CNC(=O)/C=C/c1cccc(Cl)c1)C1CCS(=O)(=O)CC1", "GI50": "6.47 µM", "TGI": "40.7 µM"},
      {"smiles": "O=C(/C=C/c1cccc2ccccc12)Nc1ncc(Cc2ccccc2)s1", "GI50": "0.436 µM", "TGI": "1.66 µM"},
      {"smiles": "CCCN1CCC=C(c2ccc(Nc3nc(Nc4ccccc4C(N)=O)c4cc[nH]c4n3)c(C)c2)C1", "GI50": "11 µM", "TGI": "> 25 µM"}
    ]},
    {"system": "SN12C renal", "experiment": "inhibition of tumour cell growth, NCI panel, 48 h", "units": {"GI50": "µM", "TGI": "µM"}, "values": [
      {"smiles": "COc1cccc2c1cc1c3c(cc4c(c32)OCO4)C(=O)N1", "GI50": 2.87, "TGI": 19.6},
      {"smiles": "Cc1c(Cl)cccc1NC(=O)c1sc2nc3c(cc2c1N)CCCC3", "GI50": 5.88, "TGI": "> 100"},
      {"smiles": "O=C1/C(=C\\c2ccccc2)C2OCC=C3CN4CCC56c7ccccc7N1C5C2C3CC46", "note": "(centres undefined)", "GI50": 26.2, "TGI": "> 100"},
      {"smiles": "COc1ccc2c(c1)/C(=N/OC(C)=O)c1c-2cnc2ccccc12", "GI50": 18.9, "TGI": 36.3},
      {"smiles": "CCCCCCCCCCSC(=N)N", "GI50": 5.09, "TGI": 18.4}
    ]}
  ]
}
